# Where two headings read alike, the source gives them in different places.
# Key:
# [1] = system: hepatic progenitor cells differentiated from SEES5 cells; assay: culture of hepatic progenitor cells differentiated from SEES5 cells in the presence of an antibiotic (selection); assay type: cell-based, human; details: for colony of cells after culture with antibiotic: concentration and culture period of each antibiotic as in Table 6 (3 days)
# [2] = system: hepatic progenitor cells differentiated from iPSC-K cells; assay: culture of hepatic progenitor cells differentiated from iPSC-K cells in the presence of an antibiotic (selection); assay type: cell-based, human; details: for colony of cells after culture with antibiotic: concentration and culture period of each antibiotic as in Table 5
# Experimental: The iPSC-K cells were cultured until becoming approximately 80% confluent. […] The colony was dissociated by gentle tapping of the dish and then suspended by the addition of hiPSC medium. The obtained cell suspension was transferred to a dish coated with gelatin, and incubated under conditions of 15 minutes, 37° C., and 5% CO2 to remove the feeder cells. The supernatant was centrifuged, and the recovered iPSC-K cells were suspended in EB medium (having the composition described below).
# The EBs were recovered and suspended in XF32 medium (Uchida, H. et al., JCI Insight, 2017; 2 (1): e86492, doi:10.1172/jci.insight.86492). The EBs were placed at a concentration of 20 EBs/well in a 24-well plate coated with collagen, and differentiated into hepatic progenitor cells by adhesion culture at 37° C. for 35 days in 5% CO2. Then, the cells were further cultured for 2 days using modified SCM-6F8 medium (Wang, X. et al., Nature, 2015; 522 (7555): 173-8, doi:10.1038/nature14484, Epub 2015 Jun. 3) supplemented with 3 μg/ml puromycin (Wako Pure Chemical Industries, Ltd., #160-23151).
# Functional hepatic progenitor cells were prepared from iPSC-K cells by the same procedures as in the sections (2-1) and (2-2) except that various antibiotics were used instead of puromycin. The antibiotics used and their concentrations, and the number of culture days will be shown below.
# [3] = system: functional hepatic progenitor cells prepared from iPSC-O cells; assay: selective culture with ammonia of functional hepatic progenitor cells prepared from iPSC-O cells; qRT-PCR after differentiation
# [4] = system: functional hepatic progenitor cells prepared from SEES5 cells; details: 5 mg/ml or 8 mg/ml ammonia, 2 days, after puromycin selection
# [5] = system: gut organoid differentiated from Edom-iPS cells; assay: culture of gut organoid in the presence of puromycin; assay type: cell-based; details: 2 days
# Experimental: Gut organoid was prepared from Edom-iPS cells (PLoS Genet., 2011; 7 (5):e1002085, doi.org/10.1371/journal.pgen.1002085), menstrual blood-derived iPS cells, according to the procedures described in Uchida, H. et al., JCI Insight, 2017; 2 (1): e86492. After a lapse of 3 months, the gut organoid was cultured for 2 days in the presence of […] puromycin.
# [6] = conditions of Table 6, data not shown
# [7] = hepatic cells differentiated from cells selected with ammonia, qRT-PCR, vs no ammonia selection
Molecule,colony of cells after culture with antibiotic [1],"CYP3A4 expression of the cells selected with antibiotic [1, 6]",colony of cells after culture with antibiotic [2],also measured
CN[C@@H]1[C@@H](O)[C@@H](O[C@@H]2[C@@H](O)[C@H](O[C@H]3O[C@H]([C@@H](C)O)[C@@H](O)[C@H](O)[C@H]3N)[C@@H](N)C[C@H]2N)OC[C@]1(C)O [G418],A colony of the cells was obtained,markedly high level,A colony of the cells was obtained,–
"Cc1c(N)nc([C@H](CC(N)=O)NC[C@H](N)C(N)=O)nc1C(=O)N[C@H](C(=O)N[C@H](C)[C@@H](O)[C@H](C)C(=O)N[C@H](C(=O)NCCC1=N[C@@H](c2nc(C(=O)NCCCCN=C(N)N)cs2)CS1)[C@@H](C)O)[C@@H](O[C@@H]1O[C@@H](CO)[C@@H](O)[C@H](O)[C@@H]1O[C@H]1O[C@H](CO)[C@@H](O)[C@H](OC(N)=O)[C@@H]1O)c1cnc[nH]1 [Zeocin™, phleomycin D1]",A colony of the cells was obtained,–,A colony of the cells was obtained,CYP3A4 expression of the cells selected with antibiotic [1]: markedly high level
N [ammonia],–,–,–,"colony formation after selective culture with ammonia ([3]; 5 mg/ml or 8 mg/ml ammonia, 2 days, after puromycin selection): A colony was formed; expression level of CPS1 [3, 7]: Elevation; expression level of CYP3A4 [3, 7]: further elevate; expression level of OTC [3, 7]: Elevation; colony formation after selective culture with ammonia [4]: A colony was formed"
CN(CC[C@H](N)CC(=O)N[C@H]1C=C[C@H](n2ccc(N)nc2=O)O[C@@H]1C(=O)O)C(=N)N [blasticidin S],A colony of the cells was obtained,markedly high level,A colony of the cells was obtained,–
COc1ccc(C[C@H](N)C(=O)N[C@H]2[C@@H](O)[C@H](n3cnc4c(N(C)C)ncnc43)O[C@@H]2CO)cc1 [puromycin],A colony of the cells was obtained,markedly high level,–,"colony of cells after culture in the presence of puromycin ([2]; 3 μg/ml puromycin, 2 days, modified SCM-6F8 medium): colony of the cells; cells obtained after puromycin culture of gut organoid ([5]; 2 mg/ml puromycin): Functional small intestinal epithelial progenitor cells having the ability to metabolize drugs were obtained; cells obtained after puromycin culture of gut organoid ([5]; 400 mg/ml puromycin): Functional small intestinal epithelial progenitor cells having the ability to metabolize drugs were obtained"
phleomycin,A colony of the cells was obtained,–,A colony of the cells was obtained,–
